Results reported in ChEMBL document CHEMBL1201862, “PubChem BioAssay data set” (2004).
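Growth conditions: 96-well plates. Treatment: test compound, 48 hours, 5 concentrations. Analysis: linear interpolation between bracketing concentrations; unreached endpoints set to highest concentration. Here, GI50 denotes the concentration required for 50% inhibition of growth.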 Activity calls are given as the source filed them. Rule as the data show it: active = GI50 up to about 1.1 µM and inactive = higher.

Columns and labels:
Assay in all cases: NCI tumour cell line growth inhibition, 48 h
KM12 = system: KM12
OVCAR-5 = system: OVCAR-5
SW-620 = system: SW-620
NCI-H226 = system: NCI-H226
CAKI-1 = system: CAKI-1
U-251 = system: U-251
SF-295 = system: SF-295
HL-60 = system: HL-60
COLO 205 = system: COLO 205
HCC 2998 = system: HCC 2998
SK-MEL-2 = system: SK-MEL-2
SNB-19 = system: SNB-19
SNB-78 = system: SNB-78
MOLT-4 = system: MOLT-4
786-0 = system: 786-0
HOP-92 = system: HOP-92
UACC-62 = system: UACC-62
SN12C = system: SN12C

Structure (SMILES) | GI50 (KM12) | GI50 (OVCAR-5) | GI50 (SW-620) | GI50 (NCI-H226) | GI50 (CAKI-1) | GI50 (U-251) | GI50 (SF-295) | GI50 (HL-60) | GI50 (COLO 205) | GI50 (HCC 2998) | GI50 (SK-MEL-2) | GI50 (SNB-19) | GI50 (SNB-78) | GI50 (MOLT-4) | GI50 (786-0) | GI50 (HOP-92) | GI50 (UACC-62) | GI50 (SN12C)
COc1ccc(-c2cnoc2-c2ccc(OC)c(OC)c2)cc1OC | 0.746 µM (active) | 3.72 µM (inactive) | 0.414 µM (active) | 1.71 µM (inactive) | 2.35 µM (inactive) | 2.34 µM (inactive) | 0.883 µM (active) | 0.313 µM (active) | 1.18 µM (inactive) | 1.05 µM (active) | 1.08 µM (active) | 4.15 µM (inactive) | 7.62 µM (inactive) | 0.893 µM (active) | 1.64 µM (inactive) | 2.67 µM (inactive) | 0.406 µM (active) | 3.04 µM (inactive)
O=C(/C=C(\O)C(=O)O)/C=C(\O)c1ccc(Cl)cc1 | > 100 µM (inactive) | > 100 µM (inactive) | > 100 µM (inactive) | > 100 µM (inactive) | > 100 µM (inactive) | > 100 µM (inactive) | > 100 µM (inactive) | > 100 µM (inactive) | > 100 µM (inactive) | > 100 µM (inactive) | > 100 µM (inactive) | > 100 µM (inactive) | > 100 µM (inactive) | > 100 µM (inactive) | > 100 µM (inactive) | > 100 µM (inactive) | > 100 µM (inactive) | > 100 µM (inactive)
CN(C)c1ccc(/C=C2\CCc3ccccc3C2=O)cc1Br | 38.5 µM (inactive) | > 100 µM (inactive) | 34.2 µM (inactive) | > 100 µM (inactive) | 36.4 µM (inactive) | 71.8 µM (inactive) | > 100 µM (inactive) | 21.2 µM (inactive) | 68.9 µM (inactive) | > 100 µM (inactive) | 48.5 µM (inactive) | > 100 µM (inactive) | 39.4 µM (inactive) | 32.6 µM (inactive) | > 100 µM (inactive) | 62.7 µM (inactive) | 40.2 µM (inactive) | > 100 µM (inactive)
CCc1cc(C(=O)OC)cn1C(=N)c1ccc(Cl)cc1 | > 100 µM (inactive) | > 100 µM (inactive) | > 100 µM (inactive) | > 100 µM (inactive) | > 100 µM (inactive) | > 100 µM (inactive) | > 100 µM (inactive) | > 100 µM (inactive) | > 100 µM (inactive) | > 100 µM (inactive) | > 100 µM (inactive) | > 100 µM (inactive) | > 100 µM (inactive) | > 100 µM (inactive) | > 100 µM (inactive) | > 100 µM (inactive) | > 100 µM (inactive) | > 100 µM (inactive)
CC1=Nc2ccccc2NC(c2ccoc2)C1 (stereo not drawn) | > 100 µM (inactive) | > 100 µM (inactive) | > 100 µM (inactive) | > 100 µM (inactive) | > 100 µM (inactive) | > 100 µM (inactive) | > 100 µM (inactive) | > 100 µM (inactive) | > 100 µM (inactive) | > 100 µM (inactive) | > 100 µM (inactive) | > 100 µM (inactive) | > 100 µM (inactive) | > 100 µM (inactive) | > 100 µM (inactive) | > 100 µM (inactive) | > 100 µM (inactive) | > 100 µM (inactive)
CC(=O)c1cccc(NC(=O)C(=O)Nn2c(N)nnc2N)c1 | > 100 µM (inactive) | > 100 µM (inactive) | > 100 µM (inactive) | > 100 µM (inactive) | > 100 µM (inactive) | > 100 µM (inactive) | > 100 µM (inactive) | > 100 µM (inactive) | > 100 µM (inactive) | > 100 µM (inactive) | > 100 µM (inactive) | > 100 µM (inactive) | > 100 µM (inactive) | > 100 µM (inactive) | > 100 µM (inactive) | > 100 µM (inactive) | > 100 µM (inactive) | > 100 µM (inactive)
